According to the OPERA property sets (Mansouri et al. 2018):

Conditions: for log10 BCF / log10 biotransformation half-life (days): fish

| SMILES | melting point [°C] | boiling point [°C] | further results |
| --- | --- | --- | --- |
| CCOC(=O)C(O)(c1ccc(Cl)cc1)c1ccc(Cl)cc1 | 37 | – | log10 Koc (L/kg): 3.3; log10 vapour pressure (mmHg): -5.66; ready biodegradability: not readily biodegradable; log10 BCF: 2.68; log10 biotransformation half-life (days): -0.08 |
| N#Cc1cccc([N+](=O)[O-])c1 | 116 | – | – |
| FCCBr | – | 71.5 | – |
| C[C@]12CCC(=O)C=C1CC[C@@H]1[C@@H]2CC[C@@]2(C)[C@H]1CC[C@]2(C)O | 163 | – | – |
| C[Si](C)(C)CC(=O)O | 41 | – | – |
| CC(=O)C(C)(C)C(C)=O | 19 | 173 | – |
| CNc1ccc(O)c2c1C(=O)c1c(O)ccc(NC)c1C2=O | 217 | – | – |
| COc1cccc(C)c1OC | – | 204 | – |
| CC(C)CCC[C@@H](C)[C@H]1CC[C@H]2C3=CC=C4C[C@@H](O)CC[C@]4(C)[C@H]3CC[C@]12C | 150 | – | – |
| COC(=O)CCC(=O)O | 58 | – | – |
| CC(=O)Oc1ccccc1C(=O)Oc1ccccc1C(=O)O | 159 | – | – |
| CCCCCCCCC[C@H](O)CC | 25 | – | – |
| CCN(CC)c1nc(C)cc(OP(=S)(OC)OC)n1 | 15 | – | log10 Koc (L/kg): 3; log10 vapour pressure (mmHg): -4.82 |
| ClC1=C(Cl)C(Cl)(Cl)C(Cl)(Cl)C1(Cl)Cl | 40 | 283 | – |
| CCCCCC(O)c1ccc(O)c(O)c1 (stereo not given) | 109 | – | – |
| CC=CC(=O)CC | – | 138 | – |
| O=C(c1ccccc1)c1ccc2n1CCC2C(=O)O (stereo not given) | 160 | – | – |
| CC=CCc1ccccc1 | – | 176 | – |
| Nc1ccc(Cl)cn1 | 137 | – | – |
| Cc1c(C(C)OC(=O)CCC(=O)O)oc2ccc(C3=CC(=O)OC3)cc12 (stereo not given) | 144 | – | – |
| CCCCOCCOCCCC | -69.1 | 203 | log10 vapour pressure (mmHg): -1.05 |
| O=c1[nH]cc(N(CCCl)CCCl)c(=O)[nH]1 | – | – | log10 Koc (L/kg): 1.46 |
| O=[N+]([O-])Nc1ccccc1 | 47.3 | – | – |
| CN(C)c1ccc(N(C)C)cc1 | 51 | 260 | – |
| O=C(O)C=Cc1ccco1 | 143 | – | – |
| CCC#N | -92.8 | 97.1 | log10 Henry constant (atm·m³/mol): -4.43; log10 Koa: 2.69; log10 vapour pressure (mmHg): 1.68 |

| SMILES | melting point [°C] | boiling point [°C] | further results |
| --- | --- | --- | --- |
| c1ccc2c(N=Nc3cccc4ccccc34)cccc2c1 | 190 | – | – |
| NS(=O)(=O)c1cc2c(cc1Cl)NC(CC1CCCC1)NS2(=O)=O (stereo not given) | 238 | – | – |
| CCCCCCCCCCCC#N | 4 | 277 | log10 vapour pressure (mmHg): -2.63 |
| CCCCCCC(=O)Cl | -83.8 | 145 | log10 vapour pressure (mmHg): -0.35 |
| CC1(C)C2CCC1(C)C(O)C2 (stereo not given) | – | – | ready biodegradability: readily biodegradable |
| C[C@]12CC[C@H](O)C[C@H]1CC[C@@H]1[C@@H]2[C@H](O)C[C@]2(C)[C@@H](C3=CC(=O)OC3)CC[C@]12O | 280 | – | – |
| Cc1ccccc1N=Nc1c(N)ccc2ccccc12 | 126 | – | – |
| CC(COc1ccccc1)NC(C)C(O)c1ccc(O)cc1 (stereo not given) | 103 | – | – |
| c1ccc(C2=N[C@H](c3ccccc3)[C@@H](c3ccccc3)N2)cc1 | 134 | – | – |
| C[C@]12CCC(=O)C=C1CC[C@@H]1[C@@H]2[C@@H](O)C[C@@]2(C)[C@H]1CC[C@]2(O)C(=O)CO | 218 | – | – |
| C[C@@H]1C[C@@]2(C)[C@@H](CC[C@@H]3[C@@H]2CC[C@]2(C)[C@@H](O)CC[C@@H]32)CC1=O | 151 | – | – |
| SCCCS | -79 | 173 | – |
| O=C(Nc1ccc(Cl)c(Cl)c1)c1cc(Cl)ccc1O | 247 | – | – |
| O=[N+]([O-])c1ccc(O)c(F)c1 | 121 | – | – |
| CC(C)(c1ccccc1)c1ccccc1 | 29 | 282 | – |
| CCCCCCC(O)CCC (stereo not given) | -11 | 210 | – |
| O=C(NCO)NS(=O)(=O)c1ccc(NC(=O)c2ccccc2C(=O)O)cc1 | 162 | – | – |
| C/C=C(/C)C(C)C | -121 | 89.9 | – |
| CC(Oc1ccccc1)C(=O)Cl (stereo not given) | – | 147 | – |
| Cn1cnc2nc(N)[nH]c(=O)c21 | 370 | – | – |
| ClCC(Cl)C(Cl)=C(Cl)C(Cl)CCl (stereo not given) | 58.5 | – | – |
| c1ccc(-c2cnc(-c3ccc(-c4ncc(-c5ccccc5)o4)cc3)o2)cc1 | 245 | – | – |
| Cc1ccc(C)c(C=O)c1 | – | 220 | – |
| O=C(O)Cn1c(=O)sc2cccc(Cl)c21 | 193 | – | log10 Koc (L/kg): 1.52; log10 vapour pressure (mmHg): -9.12 |
| O=Cc1ccccc1[N+](=O)[O-] | 43.5 | – | log10 vapour pressure (mmHg): -1.75 |
| OCc1cc(Br)ccc1O | 113 | – | – |

| SMILES | melting point [°C] | boiling point [°C] | further results |
| --- | --- | --- | --- |
| Brc1cscc1Br | 4.5 | 222 | – |
| Cc1ccc2cccc(C)c2n1 | 27 | 255 | – |
| Brc1cc(Br)c(Oc2c(Br)c(Br)c(Br)c(Br)c2Br)cc1Br | – | – | log10 BCF: 5.93 |
| Clc1nc(Cl)c(Cl)c(Cl)n1 | 69 | – | – |
| C[C@@H]1CC[C@H](O)C1 | – | 148 | – |
| c1ccc(-c2cccnc2)cc1 | 164 | 272 | – |
| CC(C)(C)OCCO | – | – | ready biodegradability: not readily biodegradable |
| COCCOCCO | – | 193 | log10 vapour pressure (mmHg): -0.602 |
| O=C(C=Cc1ccco1)C=Cc1ccco1 | 60.5 | – | – |
| O=C(Cl)N(c1ccccc1)c1ccccc1 | 83 | – | – |
| Fc1ccc2ccccc2c1 | 61 | 212 | – |
| CCCCS/C(=N\c1cccnc1)SCc1ccc(C(C)(C)C)cc1 | 32 | – | – |
| CCCCC(CC)CCC (stereo not given) | – | 164 | – |
| Oc1ccccc1Cl | 9.8 | 175 | log10 Henry constant (atm·m³/mol): -4.95; log10 Koc (L/kg): 2.6; log10 vapour pressure (mmHg): 0.403; ready biodegradability: not readily biodegradable; log10 BCF: 1.35; log10 biotransformation half-life (days): -0.38 |
| COc1ccc2c(c1OC)C(=O)O[C@@H]2[C@H]1c2cc3c(cc2CCN1C)OCO3 | 132 | – | – |
| CC(C)(C)NCCO | 44 | 176 | ready biodegradability: not readily biodegradable |
| CCCCCOCCCCC | -69 | 190 | log10 Koa: 4.8; log10 vapour pressure (mmHg): -0.067 |
| c1ccc(OCCOc2ccccc2)cc1 | 98 | – | – |
| C1=Cc2ccccc2C1 | -1.8 | 182 | log10 biodegradation half-life (days): 0.477; log10 vapour pressure (mmHg): 0.0414 |
| CCNC | – | 36.5 | – |
| Cc1cc(C)c(Br)c(C)c1Br | 65.5 | 285 | – |
| CCOC(=O)C(F)(F)F | – | 61 | – |
| O=C(Cc1c(Cl)ccc(Cl)c1Cl)[O][Na] | – | – | log10 Koc (L/kg): 1.72 |
| c1ccc(N2CCCCC2)cc1 | 4.7 | 258 | – |
| CC(=O)C(C)=O | -1.2 | 88 | log10 Henry constant (atm·m³/mol): -4.88; log10 vapour pressure (mmHg): 1.75 |
| CC(C)c1ccc(C(C)C)c(C(C)C)c1 | – | 244 | – |

| SMILES | melting point [°C] | boiling point [°C] | further results |
| --- | --- | --- | --- |
| CC1CCC2CC1C2(C)C (stereo not given) | – | 160 | – |
| COc1ccc(CCCC(=O)O)cc1 | 57.5 | – | – |
| O=c1c(O)c(-c2ccc(O)c(O)c2)oc2cc(O)ccc12 | 330 | – | – |
| CC(C)CCC(O)C(C)C (stereo not given) | – | 175 | – |
| COc1cc(CCC(C)=O)ccc1O | 40.5 | – | – |
| CC(=O)CC(C)(C)N | – | 180 | log10 vapour pressure (mmHg): -0.699 |
| COC(=O)CC(=O)OC | -61.9 | 181 | log10 vapour pressure (mmHg): -0.0458 |
| FC(F)(Cl)Br | -160 | -3.7 | log10 vapour pressure (mmHg): 3.31 |
| CCOC(C)(C)C | -94 | 73.1 | log10 Henry constant (atm·m³/mol): -2.79; log10 vapour pressure (mmHg): 2.09 |
| C=CCN(CC=C)C(=O)COC(=O)c1ccccc1 | 42.5 | – | – |
| Clc1ccc(Cl)c(-c2c(Cl)cccc2Cl)c1Cl | – | – | log10 Koa: 8.53 |
| COC(C)CCOC(C)=O (stereo not given) | – | – | ready biodegradability: readily biodegradable |
| COc1cc(CO)ccc1O | 115 | – | – |
| CCCCCCCC/C=C\CCCCCCCC(=O)OCC(O)CO (stereo not given) | 35 | – | ready biodegradability: readily biodegradable |
| CC(C)Cc1ccc(N)cc1 | – | 238 | – |
| CCCc1cccs1 | – | 158 | – |
| Brc1ccc(Oc2ccccc2)cc1 | 18.7 | 310 | log10 Koc (L/kg): 4.23; log10 vapour pressure (mmHg): -2.82 |
| CCCCCCCCSC(=O)Oc1cc(Cl)nnc1-c1ccccc1 | 27 | – | log10 vapour pressure (mmHg): -9.01 |
| COC(=O)CCC(=O)OC | 19 | 196 | log10 vapour pressure (mmHg): -0.387; ready biodegradability: readily biodegradable |
| CCCCCCCCCCCCCCCC[N+](C)(C)C.[Br-] | 240 | – | – |
| Clc1nc(Cl)nc(Cl)n1 | 154 | 192 | – |
| CCCCCCCCc1ccc(O)cc1 | – | – | ready biodegradability: not readily biodegradable |
| c1c[nH]cn1 | 90.5 | 257 | ready biodegradability: readily biodegradable |
| Cc1ccccc1NC(=N)NC(=N)N | 144 | – | – |
| CC(Cl)Cl | -96.9 | 57.4 | log10 Henry constant (atm·m³/mol): -2.25; log10 Koa: 2.41; log10 Koc (L/kg): 1.48; log10 vapour pressure (mmHg): 2.36; ready biodegradability: not readily biodegradable |
| CN(N=O)c1ccc(N=O)cc1 | 101 | – | – |

| SMILES | melting point [°C] | boiling point [°C] | further results |
| --- | --- | --- | --- |
| OCCCF | – | 128 | – |
| CC[N+](CC)(CCNC(=O)C(=O)NCC[N+](CC)(CC)Cc1ccccc1Cl)Cc1ccccc1Cl.[Cl-].[Cl-] | 198 | – | – |
| CCOCC(C)C | – | 81 | – |
| C1=CCC=C1 | -85 | 41 | log10 vapour pressure (mmHg): 2.64 |
| O=C1C(Br)=C(Br)C(=O)C(Br)=C1Br | 293 | – | – |
| Cc1cc(C)cc(C(=O)N(NC(=O)c2ccccc2)C(C)(C)C)c1 | 206 | – | – |
| CCCCC(CC)CO (stereo not given) | -70 | – | log10 vapour pressure (mmHg): -0.867; ready biodegradability: readily biodegradable |
| C[Si](C)(C)CCCO | – | 141 | – |
| CCCCCCc1ccc2ccccc2c1 | -3 | 324 | – |
| COS(=O)(=O)c1ccc([N+](=O)[O-])cc1 | 94 | – | – |
| CCCCCCCCCCCN | 17 | 242 | – |
| C/C=C/CC(C)C | -124 | 88.1 | – |
| FC(F)C(F)Cl (stereo not given) | – | 17 | – |
| CC(C)(C)c1cc(-n2nc3ccccc3n2)c(O)c(C(C)(C)C)c1 | – | – | ready biodegradability: not readily biodegradable; log10 biotransformation half-life (days): 0.89 |
| CCCC(Br)CBr (stereo not given) | – | – | log10 vapour pressure (mmHg): 0.153 |
| O=[N+]([O-])c1ccc(CCO)cc1 | 63 | – | – |
| N#CCC(=O)c1ccc(N)cc1 | 159 | – | – |
| CCCCCCCCCCCCCCCCOC(=O)C(C)O (stereo not given) | 41 | – | – |
| CCOC(=O)[C@H](CCc1ccccc1)N[C@H]1CCc2ccccc2N(CC(=O)O)C1=O | 148 | – | – |
| O=C1OC2(c3ccccc31)c1cc(Br)c(O)c(Br)c1Oc1c2cc(Br)c(O)c1Br | 295 | – | – |
| C1CC[C@@H]2NCCC[C@@H]2C1 | -40 | 206 | – |
| CC(Cl)(Cl)Cl | -30.4 | 74 | log10 Henry constant (atm·m³/mol): -1.76; log10 Koa: 2.7; log10 Koc (L/kg): 1.95; log10 vapour pressure (mmHg): 2.09; ready biodegradability: not readily biodegradable; log10 BCF: 0.7; log10 biotransformation half-life (days): -1.39 |
